This is an account of results in patent publication EP3917907B1, “MODULATORS OF POTASSIUM ION CHANNELS AND USES THEREOF” (Universitá Degli Studi Di Salerno, priority 2019, dated 2020).

One may read the EC50 as the concentration at which the effect is half-maximal.

SMILES strings stand for the structures. Some results are limits rather than exact numbers.

The target of data set [1] is T1, Kv7.2 (Homo sapiens, UniProt O43526).
T1 construct: expressed in transfected cells; host or cells: CHO cells (ATCC CRL-9618), transient transfection, pcDNA3.1(+)
In words: Whole-cell patch-clamp on CHO cells transiently expressing Kv7.2. It is filed as cell-based. As to conditions: for EC50: Kv7.2, shift in ramp-voltage (ΔV) at 20% of maximal current, 0.01-10 µM; for Idrug/Ictl at 0 mV: ratio of ramp-evoked Kv7.2 current amplitude in presence and absence of drug at 0 mV; for Idrug/Ictl at 0 mV / Idrug/Ictl at -40 mV: CHO cells, mean±SEM, >1 activating, <1 inhibiting; for Idrug/Ictl at -40 mV: ratio of ramp-evoked Kv7.2 current amplitude in presence and absence of drug at -40 mV. In general terms: In patch-clamp work, channel activity is measured electrically.

In data set [2] the test system is Kv7.2. Described as above. The following applies: ratio of EC50 values Kv7.3/Kv7.2. It is filed as cell-based, human.
Another data set concerns the target T2, Kv7.1 (Homo sapiens, UniProt P51787).
T2 construct: expressed in transfected cells; host or cells: CHO cells (ATCC CRL-9618), transient transfection, pcDNA3.1(+)
In words: Whole-cell patch-clamp on CHO cells transiently expressing Kv7.1. The data set is classed as cell-based. The following applies: shift in ramp-voltage (ΔV) at 20% of maximal current, 0.01-10 µM. The protocol:
(§1) According to the experimental protocol, these plasmids were expressed individually or in combination (in particular of Kv7.2 and Kv7.3), together with a plasmid-expressing enhanced green fluorescent protein (Clontech, Palo Alto, CA) used as a transfection marker. Total cDNA in the transfection mixture was kept at 4 µg. CHO cells were grown in 100-mm plastic Petri dishes in Dulbecco's modified Eagle's medium containing 10% fetal bovine serum, nonessential amino acids (0.1 mM), penicillin (50 U/ml), and streptomycin ([…]) in a humidified atmosphere at 37°C with 5% CO2. The cells were plated on glass coverslips coated with poly-L-lysine, and transfected one day after plating with the appropriate cDNA using Lipofectamine 2000 (Life Technologies), according to the manufacturer's protocol.
Currents from CHO cells were recorded at room temperature (20-22°C) 24 hours after trasfection using the whole-cell configuration of the patch-clamp technique, with glass micropipettes of 3-5 MΩ resistance. During the recording, constant perfusion of extracellular solution was maintained. The extracellular solution contained (in mM): 138 NaCl, 2 CaCl2, 5.4 KCl, 1 MgCl2, 10 glucose, and 10 HEPES, at pH 7.4, adjusted with NaOH. The pipette (intracellular) solution contained (in mM): 140 KCl, 2 MgCl2, 10 EGTA, 10 HEPES, 5 Mg^2+-ATP, at pH 7.3-7.4, adjusted with KOH. Currents were recorded using an Axopatch-200A amplifier, filtered at 5 kHz, and digitized using a DigiData 1440A (Molecular Devices). The pCLAMP software (version 10.2, Molecular Devices) was used for data acquisition and analysis. To evaluate the activity of exemplary compounds on Kv7.2 (see Table 1), as well as on Kv7.1, Kv7.2/7.3, Kv7.3 and Kv7.4 channels for selected compounds (see Table 2), the cells were clamped at -80 mV and currents were elicited by 3-s voltage ramps from -80 mV to +20 mV in the presence and absence of each compound. […] The effects of drugs were expressed as shift in the ramp-voltage (ΔV) calculated at 20% of the maximal current (Miceli et al, Proc Natl Acad Sci U S A. 2013, 110(11):4386-91). […]

Another data set deals with T3, Kv7.2/7.3 (Homo sapiens, UniProt O43525+O43526).
T3 construct: expressed in transfected cells; host or cells: CHO cells (ATCC CRL-9618), transient co-transfection, pcDNA3.1(+)
Put plainly: Whole-cell patch-clamp on CHO cells co-expressing Kv7.2 and Kv7.3. It is filed as cell-based. The following applies: for EC50: Kv7.2/7.3, shift in ramp-voltage (ΔV) at 20% of maximal current, 0.01-10 µM; for potency relative to retigabine in increasing Kv7.2/3 currents: from EC50 values of Table 2. The protocol: as §1
Currents from CHO cells were recorded at room temperature (20-22°C) 24 hours after trasfection using the whole-cell configuration of the patch-clamp technique, with glass micropipettes of 3-5 MΩ resistance. During the recording, constant perfusion of extracellular solution was maintained. The extracellular solution contained (in mM): 138 NaCl, 2 CaCl2, 5.4 KCl, 1 MgCl2, 10 glucose, and 10 HEPES, at pH 7.4, adjusted with NaOH. The pipette (intracellular) solution contained (in mM): 140 KCl, 2 MgCl2, 10 EGTA, 10 HEPES, 5 Mg^2+-ATP, at pH 7.3-7.4, adjusted with KOH. Currents were recorded using an Axopatch-200A amplifier, filtered at 5 kHz, and digitized using a DigiData 1440A (Molecular Devices). The pCLAMP software (version 10.2, Molecular Devices) was used for data acquisition and analysis. To evaluate the activity of exemplary compounds on Kv7.2 (see Table 1), as well as on Kv7.1, Kv7.2/7.3, Kv7.3 and Kv7.4 channels for selected compounds (see Table 2), the cells were clamped at -80 mV and currents were elicited by 3-s voltage ramps from -80 mV to +20 mV in the presence and absence of each compound. […] The effects of drugs were expressed as shift in the ramp-voltage (ΔV) calculated at 20% of the maximal current (Miceli et al, Proc Natl Acad Sci U S A. 2013, 110(11):4386-91). Curves were fitted using the following equation: y=max/(1+x/EC50)n, where x is the drug concentration, n is the Hill coefficient and max is the maximal value achieved, as previously described (Ambrosino et al, Br J Pharmacol. 2013, 168(6):1430-1444). Data analysis and fit were performed using Sigmaplot (version 12.3).

In another data set the target is T4, Kv7.3 (Homo sapiens, UniProt O43525).
T4 construct: expressed in transfected cells; host or cells: CHO cells (ATCC CRL-9618), transient transfection, pcDNA3.1(+)
In words: Whole-cell patch-clamp on CHO cells transiently expressing Kv7.3. The data set is classed as cell-based. The following applies: shift in ramp-voltage (ΔV) at 20% of maximal current, 0.01-10 µM. The protocol: as §1
(§2) Currents from CHO cells were recorded at room temperature (20-22°C) 24 hours after trasfection using the whole-cell configuration of the patch-clamp technique, with glass micropipettes of 3-5 MΩ resistance. During the recording, constant perfusion of extracellular solution was maintained. […] Currents were recorded using an Axopatch-200A amplifier, filtered at 5 kHz, and digitized using a DigiData 1440A (Molecular Devices). […] The effects of drugs were expressed as shift in the ramp-voltage (ΔV) calculated at 20% of the maximal current (Miceli et al, Proc Natl Acad Sci U S A. 2013, 110(11):4386-91). […]

A further data set has as its target T5, Kv7.4 (Homo sapiens, UniProt P56696).
T5 construct: expressed in transfected cells; host or cells: CHO cells (ATCC CRL-9618), transient transfection, pcDNA3.1(+)
In words: Whole-cell patch-clamp on CHO cells transiently expressing Kv7.4. The data set is classed as cell-based. As to conditions: shift in ramp-voltage (ΔV) at 20% of maximal current, 0.01-10 µM. The procedure:
as §1, §2

A further data set addresses T6, Kv7.2 W236L (Homo sapiens, UniProt O43526, W236L).
T6 construct: expressed in transfected cells; host or cells: CHO cells (ATCC CRL-9618), transient transfection, pcDNA3.1(+)
In words: Whole-cell patch-clamp on CHO cells expressing Kv7.2 W236L mutant channels. The data set is classed as cell-based. The following applies: 10 µM. The procedure:
as §1, §2

Data set [3] is described as follows: Solution stability (HPLC, extracellular solution, ambient temperature). The data set is classed as physicochemical. The following applies: percentage of degradation after 6 h at ambient temperature; 100 ppm in extracellular solution pH 7.4. In outline:
(§3)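 Analyte diluted from 1 mg/mL DMSO stock to 100 ppm in extracellular buffer (NaCl, CaCl2, KCl, MgCl2, glucose, HEPES, pH 7.4) and either kept at ambient temperature or irradiated with a solar simulator, each for 6 h. C18 RP-HPLC (40°C) peak areas at 0 and 6 h give % degradation = (Pa0−Pa6)/Pa0 ×100.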

Data set [4] can be described thus: Photostability (HPLC, solar simulator irradiation). The data set is classed as physicochemical. The following applies: for Photostability: percentage of degradation after 6 h irradiation with solar simulator, 100 ppm in extracellular solution pH 7.4. The essentials: as §3
For data set [5] the following is noted: cited from earlier work.

On to `CCCCCCC(=O)Nc1ccc2c(ccn2Cc2ccc(C(F)(F)F)cc2)c1` [N-(1-(4-(trifluoromethyl)benzyl)-1H-indol-5-yl)heptanamide], for which the EC50 on Kv7.2 [1] was 80 ± 40 nM; at Kv7.1, “Inactive”; on Kv7.2/7.3 it was 210 ± 140 nM; at Kv7.3 it was 10500 ± 6000 nM; at Kv7.4, 100 ± 20 nM. The “Idrug/Ictl at 0 mV” value on Kv7.2 [1] was determined as 3.24±0.18. Further, the “Idrug/Ictl at -40 mV” value on Kv7.2 [1] worked out at 9.34±0.82. In the data set with Kv7.2 [2], the “potency in activating Kv7.2 compared to Kv7.3 homomers” value was “about 130 fold”. Also, the “potency relative to retigabine in increasing Kv7.2/3 currents” value at Kv7.2/7.3 is on record as “eight times more potent than retigabine”. Also, the “ratio between current amplitude in the presence and absence of the drug at -40 mV” value at Kv7.2 W236L was determined as 1.3±0.3. Further, the Solution stability result in data set [3] is “A (degradation lower than 20%)”. Also, in [4], the Photostability entry is “A (degradation lower than 20%)”.
`CCCCCCC(=O)Nc1ccc(NCc2ccc(C(F)(F)F)cc2)cc1N` [N-(2-amino-4-((4-(trifluoromethyl)benzyl)amino)phenyl)heptanamide]: on Kv7.2 [1], the “Idrug/Ictl at 0 mV” value is reported as 2.55±0.56 and the “Idrug/Ictl at -40 mV” value was 16.90±3.33. Besides, at Kv7.1, the EC50 entry was “Inactive”. Also, on Kv7.2/7.3, the EC50 turned out to be 200 ± 100 nM and the “potency relative to retigabine in increasing Kv7.2/3 currents” value was “eight times more potent than retigabine”. For the same compound, the Solution stability entry in [3] is “A (degradation lower than 20%)”. Also, in [4], the Photostability result was “B (20%< degradation<40%)”.
`CCOC(=O)Nc1ccc(NCc2ccc(F)cc2)cc1N` [Retigabine, reference compound]: the EC50 at Kv7.2 [1] is 930 ± 430 nM; at Kv7.1, “Inactive”; at Kv7.2/7.3, 1720 ± 410 nM; at Kv7.3 it was 3900 ± 1700 nM; on Kv7.4 it was 1980 ± 840 nM. Besides, the “Idrug/Ictl at 0 mV” value at Kv7.2 [1] came to 1.95±0.12. Moreover, at Kv7.2 [1], the “Idrug/Ictl at -40 mV” value was determined as 6.20±1.03. Further, in the data set with Kv7.2 [2], the “potency in activating Kv7.2 compared to Kv7.3 homomers” value came out at 4 fold. Moreover, on Kv7.2 W236L, the “ratio between current amplitude in the presence and absence of the drug at -40 mV” value was 1.2±0.1. In addition, in [3], the Solution stability entry is “A (degradation lower than 20%)”. In addition, the “drug degraded after exposure to light” value in [4] (after 6 hours of exposure to light) was > 40%. Besides, the Photostability result in data set [4] is “C (degradation > 40%)”. Moreover, the “fast absorption after oral administration (time after administration)” value in data set [5] was 1.5 to 2.0 h.
For `O=S(=O)(Nc1ccc2c(c1)CCN2Cc1ccc(C(F)(F)F)cc1C(F)(F)F)C1CCCCC1` [N-(1-(2,4-bis(trifluoromethyl)benzyl)indolin-5-yl)cyclohexanesulfonamide], at Kv7.2 [1], the “Idrug/Ictl at 0 mV” value is listed as 1.22±0.11 and the “Idrug/Ictl at -40 mV” value is 1.53±0.39. For the same compound, in data set [3], the Solution stability entry was “B (20%< degradation<40%)”. In addition, in [4], the Photostability result was “C (degradation > 40%)”.
Taken in the same sequence, the figures for `O=C(Cc1ccc(Cl)cc1)N1CCc2cc(NS(=O)(=O)C3CCCCC3)ccc21` [N-(1-(2-(4-chlorophenyl)acetyl)indolin-5-yl)cyclohexanesulfonamide] were 1.18±0.08, 1.45±0.08, “A (degradation lower than 20%)” and “B (20%< degradation<40%)”.
Taken in the same sequence, the figures for `O=S(=O)(Nc1ccc2c(c1)CCN2Cc1ccc(C(F)(F)F)cc1)C1CCCCC1` [N-(1-(4-(trifluoromethyl)benzyl)indolin-5-yl)cyclohexanesulfonamide] were 2.37±0.58, 3.2±0.20, “C (degradation > 40%)” and “C (degradation > 40%)”.
The matching figures for `CN1CCN(S(=O)(=O)Nc2ccc3c(c2)CCN3Cc2ccc(F)cc2)CC1` [N-(1-(4-fluorobenzyl)indolin-5-yl)-4-methylpiperazine-1-sulfonamide]: 0.95±0.07, 1.25±0.19, “B (20%< degradation<40%)” and “B (20%< degradation<40%)”.
